Earlier results, collected in patent US20230120480A1, “METHODS FOR REMOVING CONTAMINANTS FROM PLANT-DERIVED PHARMACEUTICALS” (priority 2021, published 2023).

Settings: not given

| Compound | Water Soluble? |
| --- | --- |
| CCCCCc1cc(O)c2c(c1)OC(C)(C)[C@H]1CCC(C)=C[C@@H]21 (relative stereo) [Delta-9-cis-tetrahydrocannabinol] | No |
| CCCCCc1cc(O)c2c(c1)OC(C)(C)C1=C2CC(C)(O)C(O)C1 (centres unmarked) [8,9-Dihydroxy-delta-6a-tetrahydrocannabinol] | No |
| CCCCCc1cc(O)c2c(c1)OC(C)(C)C1=C2C(OCC)C(C)(O)CC1 (centres unmarked) [10-Ethoxy-9-hydroxy-delta-6a-tetrahydrocannabinol] | No |
| CCCCCc1cc(O)c2c(c1)OC(C)(C)C1=C2C(=O)C(C)CC1 (centres unmarked) [10-Oxo-delta-6a-tetrahydrocannabinol] | No |
| CCCCCc1cc(O)c2c(c1)OC(C)(C)[C@H](CCC(C)=O)C2=O [Cannabichromanon] | No |
| CCCCCc1cc(O)c2c(c1)OC(C)(CCC=C(C)C)C=C2 (centres unmarked) [Cannabichromene] | No |
| CCCCCc1cc2c(c(O)c1C(=O)O)C=CC(C)(CCC=C(C)C)O2 (centres unmarked) [Cannabichromenic acid] | Yes |
| CCCc1cc(O)c2c(c1)OC(C)(CCC=C(C)C)C=C2 (centres unmarked) [Cannabichromevarin] | No |
| CCCc1cc2c(c(O)c1C(=O)O)C=CC(C)(CCC=C(C)C)O2 (centres unmarked) [Cannabichromevarinic acid] | No |
| CCCCCc1cc(O)c2c(c1)OC1(C)CCC3C1C2C3(C)C (centres unmarked) [Cannabicyclol] | No |
| CCCCCc1cc2c(c(O)c1C(=O)O)C1C3C(CCC3(C)O2)C1(C)C (centres unmarked) [Cannabicyclolic acid] | Yes |
| CCCc1cc(O)c2c(c1)OC1(C)CCC3C1C2C3(C)C (centres unmarked) [Cannabicyclovarin] | No |
| C=C(C)[C@@H]1CCC(C)=C[C@H]1c1c(O)cc(CCCCC)cc1OC [Cannabidiol monomethylether] | No |
| C=C(C)[C@@H]1CCC(C)=C[C@H]1c1c(O)cc(CCCCC)cc1O [Cannabidiol, reference compound] | No |
| C=C(C)[C@@H]1CCC(C)=C[C@H]1c1c(O)cc(CCCCC)c(C(=O)O)c1O [Cannabidiolic acid] | No |
| C=C(C)[C@@H]1CCC(C)=C[C@H]1c1c(O)cc(C)cc1O [Cannabidiorcol] | No |
| C=C(C)[C@@H]1CCC(C)=C[C@H]1c1c(O)cc(CCC)cc1O [Cannabidivarin] | No |

| Compound | Water Soluble? |
| --- | --- |
| C=C(C)[C@@H]1CCC(C)=C[C@H]1c1c(O)cc(CCC)c(C(=O)O)c1O [Cannabidivarinic acid] | Yes |
| C=C(C)[C@@H]1CC[C@](C)(O)[C@H]2Oc3c(C(=O)O)c(CCCCC)cc(O)c3[C@@H]12 [Cannabielsoic acid B] | No |
| C=C(C)[C@@H]1CC[C@](C)(O)[C@H]2Oc3cc(CCCCC)c(C(=O)O)c(O)c3[C@@H]12 [Cannabielsoin acid A] | No |
| C=C(C)[C@@H]1CC[C@](C)(O)[C@H]2Oc3cc(CCCCC)cc(O)c3[C@@H]12 [Cannabielsoin] | No |
| CCCCCc1cc(O)c(C/C=C(\C)CCC=C(C)C)c(OC)c1 [Cannabigerol monomethylether] | No |
| CCCCCc1cc(O)c(C/C=C(\C)CCC=C(C)C)c(O)c1 [Cannabigerol] | No |
| CCCCCc1cc(OC)c(C/C=C(\C)CCC=C(C)C)c(O)c1C(=O)O [Cannabigerolic acid monomethylether] | Yes |
| CCCCCc1cc(O)c(C/C=C(\C)CCC=C(C)C)c(O)c1C(=O)O [Cannabigerolic acid] | Yes |
| CCCc1cc(O)c(C/C=C(\C)CCC=C(C)C)c(O)c1 [Cannabigerovarin] | No |
| CCCc1cc(O)c(C/C=C(\C)CCC=C(C)C)c(O)c1C(=O)O [Cannabigerovarinic acid] | Yes |
| CCCc1cc(O)c2c(c1)OC1(C)CCC(C(C)(C)O)C2C1 (centres unmarked) [Cannabiglendol] | No |
| C=C(C)c1ccc(C)cc1-c1c(O)cc(CCCCC)cc1O [Cannabinodiol] | No |
| C=C(C)c1ccc(C)cc1-c1c(O)cc(CCC)cc1O [Cannabinodivarin] | No |
| CCCCCc1cc(OC)c2c(c1)OC(C)(C)c1ccc(C)cc1-2 [Cannabinol methylether] | No |
| CCc1cc(O)c2c(c1)OC(C)(C)c1ccc(C)cc1-2 [Cannabinol-C2] | No |
| CCCCc1cc(O)c2c(c1)OC(C)(C)c1ccc(C)cc1-2 [Cannabinol-C4] | No |
| CCCCCc1cc2c(c(O)c1C(=O)O)-c1cc(C)ccc1C(C)(C)O2 [Cannabinolic acid] | Yes |

Settings: permissible limit of the pesticide in Cannabis, State of Oregon

| Compound | Action Level (ppm) |
| --- | --- |
| Cc1c(COC(=O)[C@@H]2[C@H](/C=C(\Cl)C(F)(F)F)C2(C)C)cccc1-c1ccccc1 (racemic) [Bifenthrin] | 0.2 ppm |
| COP(=O)(NC(C)=O)SC (centres unmarked) [Acephate] | 0.4 ppm |
| CCCCCCCCCCCCC1=C(OC(C)=O)C(=O)c2ccccc2C1=O [Acequinocyl] | 2 ppm |
| C/C(=N\C#N)N(C)Cc1ccc(Cl)nc1 [Acetamiprid] | 0.2 ppm |
| CNC(=O)O/N=C/C(C)(C)SC [Aldicarb] | 0.4 ppm |
| CO/C=C(/C(=O)OC)c1ccccc1Oc1cc(Oc2ccccc2C#N)ncn1 [Azoxystrobin] | 0.2 ppm |
| COc1ccc(-c2ccccc2)cc1NNC(=O)OC(C)C [Bifenazate] | 0.2 ppm |
| O=C(Nc1ccccc1-c1ccc(Cl)cc1)c1cccnc1Cl [Boscalid] | 0.4 ppm |
| CNC(=O)Oc1cccc2ccccc12 [Carbaryl] | 0.2 ppm |
| CNC(=O)Oc1cccc2c1OC(C)(C)C2 [Carbofuran] | 0.2 ppm |
| CNC(=O)c1cc(Cl)cc(C)c1NC(=O)c1cc(Br)nn1-c1ncccc1Cl [Chlorantranili- prole] | 0.2 ppm |
| CCOCn1c(-c2ccc(Cl)cc2)c(C#N)c(Br)c1C(F)(F)F [Chlorfenapyr] | 1 ppm |
| CC1(C)C(C=C(Cl)Cl)C1C(=O)OC(C#N)c1ccc(F)c(Oc2ccccc2)c1 (centres unmarked) [Cyfluthrin] | 1 ppm |
| COP(=O)(OC)OC=C(Cl)Cl [DDVP (Dichlorvos)] | 0.1 ppm |
| CCOP(=S)(OCC)Oc1cc(C)nc(C(C)C)n1 [Diazinon] | 0.2 ppm |
| CNC(=O)CSP(=S)(OC)OC [Dimethoate] | 0.2 ppm |
| CCOc1ccc(C(C)(C)COCc2cccc(Oc3ccccc3)c2)cc1 [Etofenprox] | 0.4 ppm |
| CCOc1cc(C(C)(C)C)ccc1C1COC(c2c(F)cccc2F)=N1 (centres unmarked) [Etoxazole] | 0.2 ppm |
| CCOC(=O)NCCOc1ccc(Oc2ccccc2)cc1 [Fenoxycarb] | 0.2 ppm |
| Cc1nn(C)c(Oc2ccccc2)c1/C=N/OCc1ccc(C(=O)OC(C)(C)C)cc1 [Fenpyroximate] | 0.4 ppm |
| N#Cc1nn(-c2c(Cl)cc(C(F)(F)F)cc2Cl)c(N)c1[S+]([O-])C(F)(F)F (centres unmarked) [Fipronil] | 0.4 ppm |
| N#CCNC(=O)c1cnccc1C(F)(F)F [Flonicamid] | 1 ppm |
| N#Cc1c[nH]cc1-c1cccc2c1OC(F)(F)O2 [Fludioxonil] | 0.4 ppm |
| CC1C(c2ccc(Cl)cc2)SC(=O)N1C(=O)NC1CCCCC1 (centres unmarked) [Hexythiazox] | 1 ppm |
| C=CCOC(Cn1ccnc1)c1ccc(Cl)cc1Cl (centres unmarked) [Imazalil] | 0.2 ppm |
| O=[N+]([O-])NC1=NCCN1Cc1ccc(Cl)nc1 [Imidacloprid] | 0.4 ppm |

| Compound | Action Level (ppm) |
| --- | --- |
| CO/N=C(/C(=O)OC)c1ccccc1COc1ccccc1C [Kresoxim- methyl] | 0.4 ppm |
| CCCCC(CC)CN1C(=O)C2C3C=CC(C3)C2C1=O (centres unmarked) [MGK-264] | 0.2 ppm |
| CCOC(=O)CC(SP(=S)(OC)OC)C(=O)OCC (centres unmarked) [Malathion] | 0.2 ppm |
| COCC(=O)N(c1c(C)cccc1C)C(C)C(=O)OC (centres unmarked) [Metalaxyl] | 0.2 ppm |
| CNC(=O)Oc1cc(C)c(SC)c(C)c1 [Methiocarb] | 0.2 ppm |
| CNC(=O)ON=C(C)SC [Methomyl] | 0.4 ppm |
| CCCCC(C#N)(Cn1cncn1)c1ccc(Cl)cc1 (centres unmarked) [Myclobutanil] | 0.2 ppm |
| COP(=O)(OC)OC(Br)C(Cl)(Cl)Br (centres unmarked) [Naled] | 0.5 ppm |
| CNC(=O)O/N=C(\SC)C(=O)N(C)C [Oxamyl] | 1 ppm |
| CC(C)(C)C(O)C(Cc1ccc(Cl)cc1)n1cncn1 (centres unmarked) [Paclobutrazol] | 0.4 ppm |
| CC1(C)C(C=C(Cl)Cl)C1C(=O)OCc1cccc(Oc2ccccc2)c1 (centres unmarked) [Permethrins] | 0.2 ppm |
| COP(=S)(OC)SCN1C(=O)c2ccccc2C1=O [Phosmet] | 0.2 ppm |
| C#CCC1=C(C)C(OC(=O)[C@@H]2[C@@H](C=C(C)C)C2(C)C)CC1=O (some centres unmarked) [Prallethrin] | 0.2 ppm |
| CCCC1COC(Cn2cncn2)(c2ccc(Cl)cc2Cl)O1 (centres unmarked) [Propiconazole] | 0.4 ppm |
| CNC(=O)Oc1ccccc1OC(C)C [Propoxur] | 0.2 ppm |
| CC(C)(C)c1ccc(CSc2cnn(C(C)(C)C)c(=O)c2Cl)cc1 [Pyridaben] | 0.2 ppm |
| Cc1cc(C)c(C2=C(OC(=O)CC(C)(C)C)C3(CCCC3)OC2=O)c(C)c1 [Spiromesifen] | 0.2 ppm |
| CCOC(=O)OC1=C(c2cc(C)ccc2C)C(=O)N[C@]12CC[C@@H](OC)CC2 [Spirotetramat] | 0.2 ppm |
| CCCN(CC)CC1COC2(CCC(C(C)(C)C)CC2)O1 (centres unmarked) [Spiroxamine] | 0.4 ppm |
| CC(C)(C)C(O)(CCc1ccc(Cl)cc1)Cn1cncn1 (centres unmarked) [Tebuconazole] | 0.4 ppm |
| N#C/N=C1\SCCN1Cc1ccc(Cl)nc1 [Thiacloprid] | 0.2 ppm |
| CN1COCN(Cc2cnc(Cl)s2)/C1=N\[N+](=O)[O-] [Thiamethoxam] | 0.2 ppm |
| CO/N=C(/C(=O)OC)c1ccccc1CO/N=C(\C)c1cccc(C(F)(F)F)c1 [Trifloxystrobin] | 0.2 ppm |
| Abamectin | 0.5 ppm |
| Pyrethrins | 1 ppm |
| Spinosad | 0.2 ppm |
